This note sets out measurements from ChEMBL document CHEMBL1201862, “PubChem BioAssay data set” (2004).

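The compound was tested at five concentrations on cells cultured in 96-well plates, with a 48-hour exposure period. GI50 = concentration required for 50% inhibition of growth.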 The source made the active and inactive calls. No stated cut-off is given here; in the data, active = GI50 up to about 1.1 µM and inactive = higher. Where only a bound is given, the exact number is not on record here.

Some test systems named below: A549; ACHN; BT-549; EKVX; HL-60; HOP-62; HT-29; MDA-MB-231; OVCAR-8; PC-3; RXF 393; SF-268; SK-MEL-28; SK-MEL-5; SN12C; SNB-19; SR; T47D; TK-10; UACC-62.
Common to all, as to experiment: inhibition of tumour cell growth, NCI panel, 48 h

On to `NC(=O)/C(=C\c1ccncc1)c1cccc2ccccc12`, for which the GI50 in the assay with A549, with ACHN, in the assay on BT-549, in the assay on EKVX, with HL-60 and in the assay on HOP-62 was > 100 µM (inactive) in each case. For the same molecule, the GI50 in the assay with HT-29, with MDA-MB-231, in the assay with OVCAR-8, with PC-3, in the assay on RXF 393 and in the assay with SF-268 was > 100 µM (inactive) throughout. For the same molecule, the GI50 in the assay on SK-MEL-28 was > 100 µM (inactive); in the assay with SK-MEL-5, 56.9 µM (inactive); with SN12C, 34.6 µM (inactive); in the assay with SNB-19 it was > 100 µM (inactive); in the assay on SR, 53.3 µM (inactive); in the assay on T47D it was > 100 µM (inactive). Also, the GI50 was > 100 µM (inactive) in the assay on TK-10 and 25.3 µM (inactive) in the assay with UACC-62.

As to `COc1ccc(-n2c(N)c(C#N)c(C#N)c2-c2ccco2)cc1`, the GI50 in the assay on A549 is > 100 µM (inactive); with ACHN it was > 100 µM (inactive); in the assay on BT-549 it was 9.23 µM (inactive); in the assay on EKVX, 5.01 µM (inactive); with HL-60, > 100 µM (inactive); with HOP-62, 72.1 µM (inactive). In addition, the GI50 with HT-29 is > 100 µM (inactive); in the assay with MDA-MB-231, > 100 µM (inactive); in the assay on OVCAR-8, > 100 µM (inactive); in the assay with PC-3, 46.3 µM (inactive); in the assay with RXF 393, > 100 µM (inactive); in the assay with SF-268, > 100 µM (inactive). Further, the GI50 in the assay with SK-MEL-5 is 78.5 µM (inactive); in the assay on SN12C, > 100 µM (inactive); in the assay with SNB-19 it was > 100 µM (inactive); with SR, > 100 µM (inactive); with T47D, 47.9 µM (inactive); in the assay on TK-10, > 100 µM (inactive). Also, the GI50 with UACC-62 was 38.5 µM (inactive).

As to `O=c1[nH]/c(=C/c2ccc(OCc3ccccc3)cn2)c(=O)[nH]/c1=C/c1ccc([N+](=O)[O-])cc1`, the GI50 in the assay with A549 is > 100 µM (inactive); in the assay on ACHN, > 94.6 µM (inactive); with BT-549, 54.7 µM (inactive); in the assay on EKVX, > 100 µM (inactive); in the assay with HL-60, > 100 µM (inactive); in the assay on HOP-62, 55.1 µM (inactive). Besides, the GI50 in the assay with HT-29 is > 100 µM (inactive); with MDA-MB-231, > 89.3 µM (inactive); in the assay on OVCAR-8 it was > 100 µM (inactive); in the assay on PC-3 it was > 100 µM (inactive); with RXF 393 it was > 80.2 µM (inactive); with SF-268 it was > 54.2 µM (inactive). Also, the GI50 is > 100 µM (inactive) in the assay with SK-MEL-28; > 100 µM (inactive) with SK-MEL-5; > 100 µM (inactive) in the assay with SN12C; > 64.7 µM (inactive) in the assay on SNB-19; > 58.3 µM (inactive) in the assay with SR; > 100 µM (inactive) in the assay on T47D. Also, the GI50 with TK-10 and with UACC-62 was > 100 µM (inactive) each time.

With `CCC(C#N)N(Cc1ccc(CN(C(=O)c2ccccc2)C(C#N)CC)cc1)C(=O)c1ccccc1` (stereo not drawn), the GI50 in the assay with A549 was 20.6 µM (inactive); with ACHN, 26.4 µM (inactive); in the assay with BT-549, 27.5 µM (inactive); in the assay with EKVX, 22.8 µM (inactive); with HL-60 it was 29.8 µM (inactive); in the assay on HOP-62 it was 20.9 µM (inactive). Also, the GI50 with HT-29 is 14.7 µM (inactive); in the assay with MDA-MB-231, 23.7 µM (inactive); in the assay with OVCAR-8, 31.6 µM (inactive); with PC-3, 26 µM (inactive); in the assay with RXF 393 it was 28.1 µM (inactive); in the assay with SF-268 it was 29.4 µM (inactive). Also, the GI50 in the assay on SK-MEL-5 was 12.8 µM (inactive); in the assay on SN12C, 27.1 µM (inactive); with SNB-19 it was 27 µM (inactive); with SR it was 54.6 µM (inactive); with T47D, 9.02 µM (inactive); in the assay on TK-10, 12.9 µM (inactive). Besides, in the assay on UACC-62, the GI50 is 12.1 µM (inactive).

As for `CC1(C)OC(=O)C(Cc2ccccc2)(Cc2ccccc2)C(=O)O1`, the GI50 in the assay on A549, with ACHN, in the assay on BT-549, with EKVX, with HL-60 and in the assay on HOP-62 was > 100 µM (inactive) each time. Moreover, the GI50 in the assay with HT-29 was > 100 µM (inactive); with MDA-MB-231, > 100 µM (inactive); in the assay on OVCAR-8 it was > 100 µM (inactive); with PC-3, > 100 µM (inactive); with RXF 393, 3.58 µM (inactive); in the assay with SF-268, > 100 µM (inactive). The GI50 with SK-MEL-28 is > 100 µM (inactive); in the assay with SK-MEL-5, > 100 µM (inactive); in the assay with SN12C, > 100 µM (inactive); in the assay with SNB-19, > 10 µM (inactive); in the assay on SR, > 100 µM (inactive); in the assay with T47D it was > 100 µM (inactive). Also, the GI50 in the assay on TK-10 and in the assay with UACC-62 was > 100 µM (inactive) throughout.

Turning to `C[C@]12CCC(=O)C=C1CC[C@@H]1C2CC[C@]2(C)Nc3c(ncn3-c3ccc(F)cc3)CC12` (stereo partly drawn), the GI50 is 21.9 µM (inactive) in the assay on A549; 20.8 µM (inactive) with ACHN; 20.3 µM (inactive) in the assay on BT-549; 27.3 µM (inactive) in the assay with EKVX; 3.2 µM (inactive) with HL-60; 37.8 µM (inactive) in the assay on HOP-62. The GI50 in the assay with HT-29 was 18.9 µM (inactive); in the assay with MDA-MB-231, 42.5 µM (inactive); in the assay on OVCAR-8 it was 35.2 µM (inactive); with PC-3 it was 12 µM (inactive); in the assay with RXF 393, 5.56 µM (inactive); in the assay with SF-268, 19.1 µM (inactive). In addition, the GI50 with SK-MEL-28 was 29.3 µM (inactive); with SK-MEL-5, 13.5 µM (inactive); in the assay on SN12C it was 41.3 µM (inactive); in the assay on SNB-19, 49.2 µM (inactive); with SR it was 3.34 µM (inactive); with T47D it was 18.3 µM (inactive). Also, the GI50 is 27.7 µM (inactive) in the assay on TK-10 and 16.1 µM (inactive) with UACC-62.

With `O=C1CCCC2=C1CC1=C(CCCC1=O)N2c1ccc(-c2ccccc2)cc1`, the GI50 in the assay on A549 was > 100 µM (inactive); in the assay on ACHN it was > 100 µM (inactive); in the assay on BT-549, > 40 µM (inactive); in the assay with EKVX, > 100 µM (inactive); in the assay with HL-60, > 29.6 µM (inactive); in the assay on HOP-62, > 100 µM (inactive). Also, the GI50 was > 100 µM (inactive) with HT-29; > 100 µM (inactive) in the assay on MDA-MB-231; > 100 µM (inactive) in the assay on OVCAR-8; > 100 µM (inactive) in the assay on PC-3; > 24.6 µM (inactive) in the assay with RXF 393; > 63.5 µM (inactive) in the assay with SF-268. Further, the GI50 in the assay on SK-MEL-28 is > 100 µM (inactive); in the assay on SK-MEL-5 it was > 100 µM (inactive); with SN12C, > 100 µM (inactive); in the assay with SNB-19, > 63.2 µM (inactive); in the assay with SR, > 100 µM (inactive); in the assay on T47D it was > 100 µM (inactive). Further, the GI50 was > 75 µM (inactive) in the assay with TK-10 and > 66.5 µM (inactive) with UACC-62.

For `CCN1/C(=C/C#C/C(C)=C\c2sc3ccccc3[n+]2CC)Sc2ccccc21`, the GI50 in the assay with A549 is 2.92 µM (inactive); with ACHN it was 1.16 µM (inactive); in the assay with BT-549, 0.558 µM (active); in the assay on EKVX it was 1.33 µM (inactive); in the assay with HL-60, 0.482 µM (active); in the assay on HOP-62, 5.37 µM (inactive). Further, the GI50 was 1.35 µM (inactive) in the assay with HT-29; 4.42 µM (inactive) in the assay with MDA-MB-231; 2.07 µM (inactive) with OVCAR-8; 1.82 µM (inactive) with PC-3; 2.14 µM (inactive) with RXF 393; 2.86 µM (inactive) with SF-268. For the same molecule, the GI50 in the assay on SK-MEL-28 was 3.35 µM (inactive); in the assay with SK-MEL-5, 2.02 µM (inactive); with SN12C it was 4.35 µM (inactive); with SNB-19, 1.91 µM (inactive); in the assay on SR it was 0.811 µM (active); in the assay on T47D, 5.13 µM (inactive). For the same molecule, the GI50 in the assay with TK-10 was 3.24 µM (inactive); with UACC-62, 2.55 µM (inactive).

In the case of `CN(c1ccccc1Cl)S(=O)(=O)c1ccccc1[N+](=O)[O-]`, the GI50 in the assay with A549 is 37.2 µM (inactive); in the assay on ACHN, > 10 µM (inactive); in the assay on BT-549 it was 22.6 µM (inactive); with EKVX, 39.2 µM (inactive); with HL-60, 24 µM (inactive); in the assay with HOP-62 it was 41.6 µM (inactive). For the same molecule, the GI50 with HT-29 is 34.3 µM (inactive); in the assay on MDA-MB-231 it was 37.2 µM (inactive); in the assay with OVCAR-8, 56.8 µM (inactive); in the assay with PC-3, 24.7 µM (inactive); in the assay with RXF 393, 29 µM (inactive); with SF-268 it was 55.8 µM (inactive). For the same molecule, the GI50 in the assay with SK-MEL-28 is 39.6 µM (inactive); in the assay with SK-MEL-5, 15.3 µM (inactive); in the assay on SN12C, 95.7 µM (inactive); in the assay on SNB-19 it was 46.9 µM (inactive); in the assay with SR it was 35.5 µM (inactive); in the assay on T47D it was 90.6 µM (inactive). Also, the GI50 with TK-10 is 82 µM (inactive); in the assay with UACC-62, 27.1 µM (inactive).

As for `CCOC(=O)c1csc(-c2cn(C)c3c2C(=O)C(OC)=CC3=O)n1`, the GI50 in the assay with A549 was 17.8 µM (inactive); in the assay on ACHN, 34.8 µM (inactive); in the assay on BT-549, > 40.3 µM (inactive); in the assay on EKVX, > 86.3 µM (inactive); in the assay with HL-60 it was 13 µM (inactive); with HOP-62 it was 23.2 µM (inactive). Further, the GI50 in the assay with HT-29 is 48.2 µM (inactive); with MDA-MB-231, 18.3 µM (inactive); in the assay on OVCAR-8, 45.2 µM (inactive); with PC-3, 21.4 µM (inactive); with RXF 393, 23.6 µM (inactive); in the assay on SF-268 it was > 62.5 µM (inactive). Besides, the GI50 was 32.6 µM (inactive) in the assay with SK-MEL-28; 3.91 µM (inactive) in the assay on SK-MEL-5; > 75.2 µM (inactive) in the assay with SN12C; 14.2 µM (inactive) in the assay with SNB-19; > 53.5 µM (inactive) with SR; > 95.1 µM (inactive) in the assay with T47D. Moreover, the GI50 in the assay on TK-10 is > 100 µM (inactive); with UACC-62, 21.2 µM (inactive).
